Reference: article PMC11091072, “Targeting bacterial nickel transport with aspergillomarasmine A suppresses virulence-associated Ni-dependent enzymes” (Nature Communications, 2024)
Values joined by “and” are separate entries in the source; they are usually repeats but may differ in a detail not shown here. Identical values can stand only once. Like-named read-outs stand apart in the source and are kept apart here.

Assays:
NikA [1] = target: NikA (Klebsiella pneumoniae, UniProt A6TFA3); format: cell-based; settings: 250 μM
AMA affinity for Zn2+ = format: binding; settings: PAR-based competition assay, authors' reply to reviewer; read-out: Kd for Zn (typical drift)
[2] = read-out: KD for Zn^2+; cited from earlier work
[3] = test system: struvite crystallization in K. pneumoniae cultures; test: Struvite crystal nucleation in artificial urine cultures; format: cell-based, Klebsiella pneumoniae
Excerpt: A The metal complexed structure, selectivity, and affinity of AMA. The constituents of AMA are labeled L-aspartate (L-Asp) and 2,3-diaminopropionic acid (APA). B Dose-response urease inhibition assays in K. pneumoniae. […] C Dose-response effect of AMA and Zn-AMA on the nucleation of struvite crystals in K. pneumoniae cultures grown in artificial urine. Crystals were examined microscopically in 96-well plates and visually quantified. […] The data represent the representative mean of two replicates. D Quantification of planktonic growth and crystal violet-stained biofilms of K. pneumoniae grown in artificial urine and varying concentrations of Zn-AMA. […] Data represent mean ± s.d. of four technical replicates. E ICP-MS quantification of cellular ^60Ni and ^66Zn content in K. pneumoniae untreated or treated with 200 μM AMA, or Zn-AMA. […] Whole-cell hydrogenase assays were performed by adding benzyl viologen (BV) at a final concentration of 1 mg/mL and monitoring its reduction at an absorbance of 630 nm. Data represent the mean of two technical replicates.
FIG S5 Microscopic detection of struvite crystals grown in artificial urine cultures of K. pneumoniae. Top row, the concentration-dependent effect of AMA on struvite formation. Bottom row, the concentration-dependent effect of Zn-AMA on struvite formation.
Bacteria were grown in 96 well flat-bottom plates for 24h at 37 °C. Brightfield micrographs were taken with a BioTek Cytation cell imaging reader at 4x magnification. Four images were taken per well and were digitally stitched to generate whole-well images. […]

[4] = test system: K. pneumoniae urease activity (Ni2+ uptake); test: Competition of Zn-AMA with Ni-(L-His)2 (urease-dependent pH); format: cell-based, Klebsiella pneumoniae
NikA [5] = format: binding, Klebsiella pneumoniae; settings: 100 μM
Hyd-3 = test: [NiFe] hydrogenase zymography; format: cell-based, Escherichia coli BW25113; settings: 150 µM, E. coli, 100% H2
Experimental: As described for whole-cell hydrogenase assays, E. coli BW25113 cultures (2 mL) in eight-well cell culture plates were grown under anaerobic conditions. The cells were harvested by centrifugation, resuspended in PBS, and lysed by sonication. Cell debris was removed by centrifugation (21,000 × g, 5 min), and Triton X-100 was added to a final concentration of 1%.
[NiFe] hydrogenase zymograms were
performed using E. coli grown in LB-glucose supplemented with 0.5 µM NiCl2 for 24h at 37 °C under anaerobic conditions. The E. coli
Triton X-100 (5% v/v) solubilized membranes were
mg/mL benzyl viologen and 1 mg/mL tetrazolium chloride under 100% H2 gas.

K. pneumoniae biofilm = test: Polystyrene microtiter biofilm assay (crystal violet); format: cell-based, Klebsiella pneumoniae
Experimental: Biofilm assays to assess the effect of Zn-AMA were adapted from a previously described method. Overnight cultures of K. pneumoniae or S. aureus USA300 were diluted in sterile saline (NaCl, 0.9% w/v) to an OD600 of 0.1 and diluted 1/200 in either M9-Cas, or artificial urine. Two-fold dilutions of Zn-AMA were added to the cells in a 96-well round-bottom microtiter plate, and the cells were grown at 37 °C for 18 hours in a static incubator. […] The biofilms were washed three times with deionized water, air-dried, and stained with 0.1% crystal violet for 15 min. Excess crystal violet was removed, the plates were washed with deionized water three times, and they were air-dried for 1 hour. […] Experiments were performed in four replicates, and absorbance measurements were performed in a BioTek Synergy H1 plate reader.

[6] = test system: K. pneumoniae urease activity (whole cell); test: Checkerboard analysis of Zn-AMA and AHA on urease activity; format: cell-based, Klebsiella pneumoniae
Experimental: To guide our exploration of the mode of action of Zn-AMA, we investigated whether a chemical-chemical interaction occurs with the urease inhibitor AHA. […] We subsequently performed inductively coupled plasma mass spectrometry (ICP-MS) analyses to evaluate the intracellular Ni^2+ and Zn^2+ content of K. pneumoniae.
K. pneumoniae whole-cell urease activity was determined with artificial urine containing 0.2% (w/v) casamino acids and 0.01% (w/v) phenol red in 96-well plates. For the growth of S. aureus in artificial urine, the medium was supplemented with 10% LB. After 20–24 hours of growth, bacteria were removed using 0.45 μm filter plates, and the final A550 of the medium was measured using a plate reader.
FIG S7 Evaluation of Zn-AMA as a direct inhibitor of urease. A) Checkerboard analysis of Zn-AMA and AHA on urease activity of K.
pneumoniae after growth for 24 h at 37 °C artificial urine. pH is represented by the color scale determined with phenol red. […]

NikA (Klebsiella pneumoniae, UniProt A6TFA3), sequence (A6TFA3 entry or part of it): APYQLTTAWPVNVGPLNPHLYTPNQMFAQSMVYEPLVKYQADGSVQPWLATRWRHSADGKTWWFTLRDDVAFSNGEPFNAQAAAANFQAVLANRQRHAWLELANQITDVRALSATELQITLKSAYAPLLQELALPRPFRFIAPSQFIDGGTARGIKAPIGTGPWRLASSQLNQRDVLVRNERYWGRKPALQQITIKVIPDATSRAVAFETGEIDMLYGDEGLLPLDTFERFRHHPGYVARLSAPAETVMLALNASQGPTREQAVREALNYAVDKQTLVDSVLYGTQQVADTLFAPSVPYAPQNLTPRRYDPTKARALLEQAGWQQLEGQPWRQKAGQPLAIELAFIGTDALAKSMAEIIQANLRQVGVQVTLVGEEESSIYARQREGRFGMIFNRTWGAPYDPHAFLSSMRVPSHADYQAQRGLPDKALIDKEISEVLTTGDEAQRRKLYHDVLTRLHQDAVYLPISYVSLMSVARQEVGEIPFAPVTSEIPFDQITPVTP

N[C@@H](CN[C@@H](CN[C@@H](CC(=O)O)C(=O)O)C(=O)O)C(=O)O [AMA, aspergillomarasmine A]
NikA thermal stability in cells (CETSA) (NikA [1]): barely detectable at 60 °C
Kd (AMA affinity for Zn2+): 0.1 to 0.2 nM
Kd [2]: 0.2 nM
Struvite crystal quantification (count) ([3]; 3.12 μM): 59 and 42
Struvite crystal quantification (count) ([3]; 6.25 μM): 99 and 82
Struvite crystal quantification (count) ([3]; 12 μM): 74 and 95
Struvite crystal quantification (count) ([3]; 25 μM): 68 and 103
Struvite crystal quantification (count) ([3]; 50 μM): 72 and 91
Struvite crystal quantification (count) ([3]; 100 μM): 70 and 83
Struvite crystal quantification (count) ([3]; 200 μM): 36 and 49

N[C@@H](CN[C@@H](CN[C@@H](CC(=O)O)C(=O)O)C(=O)O)C(=O)O.[Zn+2] [Zn-AMA]
pH of culture (Zn-AMA v.s. L-His) ([4]; Zn-AMA 6.25 μM + L-His 3.12 μM): 7.4 and 7.43
pH of culture (Zn-AMA v.s. L-His) ([4]; Zn-AMA 6.25 μM + L-His 6.25 μM): 7.74 and 7.71
pH of culture (Zn-AMA v.s. L-His) ([4]; Zn-AMA 6.25 μM + L-His 12.5 μM): 7.97 and 8.09
pH of culture (Zn-AMA v.s. L-His) ([4]; Zn-AMA 6.25 μM, L-His 0 μM): 6.53 and 6.52
pH of culture (Zn-AMA v.s. L-His) ([4]; Zn-AMA 25 μM + L-His 3.12 μM): 6.81 and 6.82
pH of culture (Zn-AMA v.s. L-His) ([4]; Zn-AMA 25 μM + L-His 6.25 μM): 7.1 and 7.22
pH of culture (Zn-AMA v.s. L-His) ([4]; Zn-AMA 25 μM + L-His 12.5 μM): 7.41 and 7.51
pH of culture (Zn-AMA v.s. L-His) ([4]; Zn-AMA 25 μM, L-His 0 μM): 6.38 and 6.37
effect on stability of recombinant NikA (NikA [5]): increase NikA’s stability
Struvite crystal quantification (count) ([3]; 3.12 μM): 25 and 43
Struvite crystal quantification (count) ([3]; 6.25 μM): 42 and 62
Struvite crystal quantification (count) ([3]; 12 μM): 48 and 82
Struvite crystal quantification (count) ([3]; 50 μM): 0
Struvite crystal quantification (count) ([3]; 100 μM): 0
Struvite crystal quantification (count) ([3]; 200 μM): 0
effect on struvite crystals ([3]; K. pneumoniae, artificial urine): robustly prevented the appearance of struvite crystals
Hyd-3 activity by zymography (Hyd-3): Suppression of Hyd-3 activity
Biofilm (A595), crystal violet (K. pneumoniae biofilm; 1.56 μM, artificial urine): 0.659 and 0.666 and 0.436 and 0.533
Planktonic (A595) (K. pneumoniae biofilm; 1.56 μM, artificial urine): 0.141 and 0.142 and 0.148 and 0.16
Biofilm (A595), crystal violet (K. pneumoniae biofilm; 3.12 μM, artificial urine): 0.633 and 0.585 and 0.45 and 0.471
Planktonic (A595) (K. pneumoniae biofilm; 3.12 μM, artificial urine): 0.147 and 0.142 and 0.13 and 0.155
Planktonic (A595) (K. pneumoniae biofilm; 6.2 μM, artificial urine): 0.194 and 0.11 and 0.126 and 0.129
Planktonic (A595) (K. pneumoniae biofilm; 12.5 μM, artificial urine): 0.177 and 0.124 and 0.113 and 0.167
Planktonic (A595) (K. pneumoniae biofilm; 25 μM, artificial urine): 0.165 and 0.136 and 0.151 and 0.152
Planktonic (A595) (K. pneumoniae biofilm; 50 μM, artificial urine): 0.165 and 0.152 and 0.157 and 0.154
Planktonic (A595) (K. pneumoniae biofilm; 100 μM, artificial urine): 0.171 and 0.148 and 0.158 and 0.166
Planktonic (A595) (K. pneumoniae biofilm; 200 μM, artificial urine): 0.167 and 0.176 and 0.175 and 0.166
effect on biofilm production (K. pneumoniae biofilm; M9 minimal medium): biofilms were unperturbed
effect on biofilm production (K. pneumoniae biofilm; artificial urine): completely suppress biofilm production
Urease-dependent pH change (pH) ([6]; Zn-AMA 0.39 μM, AHA 0 mM): 8.26
Urease-dependent pH change (pH) ([6]; Zn-AMA 0.39 μM, AHA 0.1 mM): 8.14
Urease-dependent pH change (pH) ([6]; Zn-AMA 0.39 μM, AHA 0.2 mM): 8.05
Urease-dependent pH change (pH) ([6]; Zn-AMA 0.39 μM, AHA 0.4 mM): 7.76
Urease-dependent pH change (pH) ([6]; Zn-AMA 0.39 μM, AHA 0.5 mM): 8.22
Urease-dependent pH change (pH) ([6]; Zn-AMA 0.39 μM, AHA 0.8 mM): 7.29
Urease-dependent pH change (pH) ([6]; Zn-AMA 0.39 μM, AHA 1.6 mM): 6.70
Urease-dependent pH change (pH) ([6]; Zn-AMA 0.78 μM, AHA 0 mM): 8.08
Urease-dependent pH change (pH) ([6]; Zn-AMA 0.78 μM, AHA 0.1 mM): 7.95
Urease-dependent pH change (pH) ([6]; Zn-AMA 0.78 μM, AHA 0.2 mM): 7.81
Urease-dependent pH change (pH) ([6]; Zn-AMA 0.78 μM, AHA 0.4 mM): 7.50
Urease-dependent pH change (pH) ([6]; Zn-AMA 0.78 μM, AHA 0.5 mM): 8.01
Urease-dependent pH change (pH) ([6]; Zn-AMA 0.78 μM, AHA 0.8 mM): 7.03
Urease-dependent pH change (pH) ([6]; Zn-AMA 0.78 μM, AHA 1.6 mM): 6.68
Urease-dependent pH change (pH) ([6]; Zn-AMA 1.56 μM, AHA 0 mM): 7.83
Urease-dependent pH change (pH) ([6]; Zn-AMA 1.56 μM, AHA 0.1 mM): 7.46
Urease-dependent pH change (pH) ([6]; Zn-AMA 1.56 μM, AHA 0.2 mM): 7.19
Urease-dependent pH change (pH) ([6]; Zn-AMA 1.56 μM, AHA 0.4 mM): 6.86
Urease-dependent pH change (pH) ([6]; Zn-AMA 1.56 μM, AHA 0.5 mM): 7.51
Urease-dependent pH change (pH) ([6]; Zn-AMA 1.56 μM, AHA 0.8 mM): 6.64
Urease-dependent pH change (pH) ([6]; Zn-AMA 1.56 μM, AHA 1.6 mM): 6.51
Urease-dependent pH change (pH) ([6]; Zn-AMA 3.12 μM, AHA 0 mM): 7.23
Urease-dependent pH change (pH) ([6]; Zn-AMA 3.12 μM, AHA 0.1 mM): 6.85
Urease-dependent pH change (pH) ([6]; Zn-AMA 3.12 μM, AHA 0.2 mM): 6.78
Urease-dependent pH change (pH) ([6]; Zn-AMA 3.12 μM, AHA 0.4 mM): 6.74
Urease-dependent pH change (pH) ([6]; Zn-AMA 3.12 μM, AHA 0.5 mM): 6.97
Urease-dependent pH change (pH) ([6]; Zn-AMA 3.12 μM, AHA 0.8 mM): 6.56
Urease-dependent pH change (pH) ([6]; Zn-AMA 3.12 μM, AHA 1.6 mM): 6.46
Urease-dependent pH change (pH) ([6]; Zn-AMA 6.25 μM, AHA 0 mM): 6.63
Urease-dependent pH change (pH) ([6]; Zn-AMA 6.25 μM, AHA 0.1 mM): 6.57
Urease-dependent pH change (pH) ([6]; Zn-AMA 6.25 μM, AHA 0.2 mM): 6.55
Urease-dependent pH change (pH) ([6]; Zn-AMA 6.25 μM, AHA 0.4 mM): 6.53
Urease-dependent pH change (pH) ([6]; Zn-AMA 6.25 μM, AHA 0.5 mM): 6.62
Urease-dependent pH change (pH) ([6]; Zn-AMA 6.25 μM, AHA 0.8 mM): 6.47
Urease-dependent pH change (pH) ([6]; Zn-AMA 6.25 μM, AHA 1.6 mM): 6.42
Urease-dependent pH change (pH) ([6]; Zn-AMA 12.5 μM, AHA 0 mM): 6.63
Urease-dependent pH change (pH) ([6]; Zn-AMA 12.5 μM, AHA 0.1 mM): 6.46
Urease-dependent pH change (pH) ([6]; Zn-AMA 12.5 μM, AHA 0.2 mM): 6.52
Urease-dependent pH change (pH) ([6]; Zn-AMA 12.5 μM, AHA 0.4 mM): 6.45
Urease-dependent pH change (pH) ([6]; Zn-AMA 12.5 μM, AHA 0.5 mM): 6.47
Urease-dependent pH change (pH) ([6]; Zn-AMA 12.5 μM, AHA 0.8 mM): 6.43
Urease-dependent pH change (pH) ([6]; Zn-AMA 12.5 μM, AHA 1.6 mM): 6.40
interaction with AHA (checkerboard) ([6]; combination of Zn-AMA and AHA): synergistic
